Experimental findings from patent US9572760B2, “Uses of compounds and mixtures from Antrodia cinnamomea mycelia” (Simpson Biotech Co., Ltd., priority 2013, dated 2017) are described below.

In this assay the target is T1, tyrosinase (Mus musculus, UniProt P11344).
T1 construct: endogenous in cells; host or cells: B16F10 murine melanoma cells (ATCC), total cell lysate
T1 sequence (P11344 19-533): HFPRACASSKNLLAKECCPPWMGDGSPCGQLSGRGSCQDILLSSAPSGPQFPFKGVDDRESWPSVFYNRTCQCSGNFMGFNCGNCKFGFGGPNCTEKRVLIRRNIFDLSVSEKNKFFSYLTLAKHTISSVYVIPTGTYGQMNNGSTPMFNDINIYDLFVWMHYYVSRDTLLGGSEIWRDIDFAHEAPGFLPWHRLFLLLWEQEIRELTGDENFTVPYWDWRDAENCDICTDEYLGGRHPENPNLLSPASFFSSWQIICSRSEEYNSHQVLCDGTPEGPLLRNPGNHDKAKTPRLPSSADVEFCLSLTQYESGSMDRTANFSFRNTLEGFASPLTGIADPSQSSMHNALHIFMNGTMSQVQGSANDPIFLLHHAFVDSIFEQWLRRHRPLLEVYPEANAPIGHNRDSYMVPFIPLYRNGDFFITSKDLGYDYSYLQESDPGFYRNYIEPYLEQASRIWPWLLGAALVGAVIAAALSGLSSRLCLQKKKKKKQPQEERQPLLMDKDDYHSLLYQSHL
The experiment in a line: Cellular tyrosinase activity assay (L-DOPA oxidation) in B16F10 cells exposed to UV. The format is cell-based, murine. The note with it: UV alone 52.55±4.36% increase over non-UV control (3.0±0.5 U/mg protein). The source says:
The dermal fibroblast cell line CG1639 was obtained from the BCRC (Bioresource Collection and Research Center) and cultured in Dulbecco's modified Eagle media (DMEM, Gibco by Invitrogen) with 1% antibiotic antimycotic (Gibco by Invitrogen) and 15% fetal bovine serum (Gibco by Invitrogen). The fetal rat skin keratinocyte, FRSK cell line was obtained from the Japan HSRRB (Health Science Research Resources Bank) and cultured in Eagle's minimal essential media (MEM, Gibco by Invitrogen) supplemented with 10% fetal bovine serum (FBS) (Gibco by Invitrogen) and 1% antibiotic antimycotic (Gibco by Invitrogen). B16F10 cells, a murine melanoma cell line, were purchased from American Type Culture Collection (ATCC, Rockville, Md., USA) and was cultured in Eagle's Minimum Essential Medium (MEM; Sigma, St. Louis, Mo.) supplemented with 10% fetal bovine serum (FBS; HyClone Lab. Inc., Logan, Utah), 0.02% antibiotic-antimycotic liquid (penicillin, 10 000 U mL^−1; streptomycin, 10 000 μg mL^−1 and amphotericin B, 25 μg mL^−1; Invitrogen, Carlsbad, Calif.).
To investigate the induction of melanogenesis and the oxidative stress by direct UV irradiation, melanoma cells and keratocytes were irradiated with 8 J cm^−2 of UVA (FL15BLB, 352 nm, 15 W; Toshiba, Tokyo, Japan) and 10 mJ cm^−2 of UVB (G15T8E, 306 nm, 15 W; Sankyo Denki, Tokyo, Japan) in a HANKS' balanced salt solution (Sigma). The UV intensity was measured by using a Model UVX Digital Radiometer (UVP Inc., Upland, Calif.).
B16F10 and FRSK cells were exposed to Hepasim compounds A-D by two different concentrations (3 or 10 μM) for 72 hrs prior to UVA irradiation. DMEM was replaced with phosphate buffered saline (PBS) to avoid generation of medium-derived toxic photoproducts prior to UV irradiation. Cells were collected 24 hrs after UVA irradiation and assayed. For preparation of cell lysate, the harvested cells were pelleted by centrifugation and lysed in lysis buffer containing 50 mM Tris-HCl, 10 mM ethylene diaminetetraacetic acid (EDTA), 1% (v/v) Tri-ton X-100, phenylmethylsulfonyl fluoride (PMSF) (100 mg/ml) and pepstatin A (1 mg/ml) in DMSO and leupeptin (1 mg/ml) in H2O, pH 6.8. The cells were centrifuged at 10,000 rpm for 10 min and the total cell lysate was collected and stored at −80° C.
The rate of L-DOPA oxidation was measured to assess cellular tyrosinase activity in B16F10 cells exposed to UV. The assay was performed as below described, 20 mM L-DOPA used as the substrates was added to each lysate in a 96-well plate and absorbance of dopachrome formation was measured spectrophotometrically at 475 nm every 10 min for 1 h at 37° C. by a spectrophotometer. The tyrosinase activity was calculated by comparison to a standard curve using tyrosinase (2034 U/mg) and was expressed as unit/mg protein. The data are expressed as a percentage of the tyrosinase activity (unit/mg protein) of non-irradiated and untreated control cells (100%).

On to `CC(C)=CCOc1ccc(C2=C(CC(C)C)C(=O)NC2=O)cc1` [Compound B, 3-isobutyl-4-[4-(3-methyl-2-butenyloxy)phenyl]-1H-pyrrol-2,5-dione], for which the “tyrosinase activity in UV-irradiated B16F10 cells” value by setting is: (3 μM) 51.65±4.6%; (10 μM) 42.32±6.7%.

Take `CC(C)=CCOc1ccc(C2=C(CC(C)C)C(=O)N(O)C2=O)cc1` [Compound C, 3-isobutyl-4-[4-(3-methyl-2-butenyloxy)phenyl]-1H-pyrrol-1-ol-2,5-dione]: the “tyrosinase activity in UV-irradiated B16F10 cells” value runs as follows: (3 μM) 48.55±3.7%; (10 μM) 40.55±3.9%.
